Data as given in patent publication US9127027B2, “Epoxyeicosatrienoic acid analogs and methods of making and using the same” (The Medical College of Wisconsin, Inc., priority 2011, dated 2015).
Like-named read-outs stand apart in the source and are kept apart here.

Assays:
bovine coronary artery = experiment: Vasorelaxant activity in bovine coronary artery rings precontracted with U-46619; type: cell-based; conditions: for Vascular Relax. % (10 μM) / activation at 10 µM: 100% relaxation = basal pre-U-46619 tension; for EC50: bovine coronary artery, read-out: Vascular Relax. EC50; for activation at 10 µM: read-out: Vascular Relax. % (10 μM)
Method: Vasorelaxant activity was measured in bovine coronary artery. Bovine hearts were obtained and the left anterior descending coronary artery was dissected and cleaned of connective tissue. Vessels of 1 mm diameter were cut into rings of 3 mm width as previously described (3, 27, 39). […] The vessels were suspended from a pair of stainless steel hooks in a 6-ml water-jacketed organ chamber. […] One hook was anchored to a steel rod and the other hook to a force transducer (model FT-03C; Grass Instruments, West Warwick, R.I.). Tension of the vessel was measured by an ETH-400 bridge amplifier, and the data were acquired with a MacLab 8e analog-to-digital converter and MacLab software version 3.5.6 (AD Instruments, Milford, Mass.) and stored on a Macintosh computer for subsequent data analysis.
Basal tension was set at the length-tension maximum of 3.5 g and equilibrated for 1.5 h. KCl (40 mM) was added to the chamber until reproducible maximal contractions were maintained. […] Cumulative additions of compounds were added to the chamber. Between concentration-response curves, the chambers were rinsed with fresh Krebs buffer, 40 mM KCl was administered to determine the maximum contraction, and the vessels were rinsed. Consecutive concentration-response curves were performed with 14,15-EET followed by a concentration-response curve to a compound. The experiment was always repeated with the order of the agonists reversed. […] The relaxation was plotted versus compound concentration and the EC50 determined utilizing statistical software.

Human recombinant sEH = Human recombinant sEH (Homo sapiens (Human), UniProt P34913); experiment: Soluble epoxide hydrolase inhibition (PHOME fluorescent substrate); type: biochemical; conditions: Table 1 head prints μM (Table 2 prints nM for same numbers); read-out: sEHi IC50
Method: Compounds were tested for their ability to inhibit recombinant soluble epoxide hydrolase (sEH) protein. The assay utilizes (3-Phhenyl-oxiranyl)-acetic acid cyano-(6-methoxy-naphthalen-2-yl)-methyl ester (PHOME), a sensitive substrate for sEH that can be used to monitor the activity of both human and murine enzymes. […] Human recombinant sEH was incubated with substrate and compounds ranging in concentration from 0.1 to 1000 nM.

Sequence of Human recombinant sEH (P34913 whole entry): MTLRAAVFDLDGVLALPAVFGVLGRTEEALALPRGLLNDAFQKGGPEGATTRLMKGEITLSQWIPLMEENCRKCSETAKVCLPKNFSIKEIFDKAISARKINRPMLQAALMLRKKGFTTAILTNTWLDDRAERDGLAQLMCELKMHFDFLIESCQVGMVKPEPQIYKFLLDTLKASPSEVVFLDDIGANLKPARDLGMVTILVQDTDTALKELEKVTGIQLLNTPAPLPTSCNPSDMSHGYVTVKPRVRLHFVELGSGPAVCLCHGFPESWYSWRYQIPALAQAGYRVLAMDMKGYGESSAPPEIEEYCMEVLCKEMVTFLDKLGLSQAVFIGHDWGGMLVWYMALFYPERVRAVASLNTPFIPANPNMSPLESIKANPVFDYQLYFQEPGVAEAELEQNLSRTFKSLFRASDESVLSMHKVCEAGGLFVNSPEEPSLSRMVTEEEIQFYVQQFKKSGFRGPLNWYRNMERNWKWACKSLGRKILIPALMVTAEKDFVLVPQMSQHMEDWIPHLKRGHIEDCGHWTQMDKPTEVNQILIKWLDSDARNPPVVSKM

For `CCCCCCC(=O)N(CCCC/C=C\CCCCCCC(=O)OCCOCCOCCO)C(C)C` [Compound 1, 2-(2-(2-Hydroxyethoxy)ethoxy)ethyl 13-(N-isopropylheptanamido)tridec-8(Z)-enoate], the “Vascular Relax. % (10 μM)” value (bovine coronary artery) was 86%, the EC50 (bovine coronary artery) was 2.9 µM and the IC50 (Human recombinant sEH) was greater than 0.5 µM.

For `CCCCCNC(=O)NCCCC/C=C\CCCCCCC(=O)OCCOCCOCCO` [Compound 2, 2-(2-(2-Hydroxyethoxy)ethoxy)ethyl 13-(3-n-pentylureido)tridec-8(Z)-enoate], the “Vascular Relax. % (10 μM)” value (bovine coronary artery) was 72% and the EC50 (bovine coronary artery) was 5.1 µM.

For `CCCCNC(=O)C(=O)NCCCC/C=C\CCCCCCC(=O)OCCOCCOCCO` [Compound 3, 2-(2-(2-Hydroxyethoxy)ethoxy)ethyl13-(2-(n-butylamino)-2 oxoacetamido)tridec-8(Z)-enoate], the “Vascular Relax. % (10 μM)” value (bovine coronary artery) was 104%, the EC50 (bovine coronary artery) was 1.5 µM and the IC50 (Human recombinant sEH) was greater than 0.5 µM.

`CCCCCNC(=O)NCCCC/C=C\CCCCOCC(=O)O` [Compound 4, 2-(10-(3-n-Pentylureido)dec-5(Z)-enyloxy)acetic acid] was tested, and the “Vascular Relax. % (10 μM)” value (bovine coronary artery) was 49%, the EC50 (bovine coronary artery; Bos taurus) was 0.63 µM and the IC50 (Human recombinant sEH) was 0.237 µM.

For `CCCCCCC(=O)N(CCCC/C=C\CCCCCCC(=O)NCC(=O)O)C(C)C` [Compound 5, 2-(13-(N-Isopropylheptanamido)tridec-8(Z)-enamido)acetic acid], the “Vascular Relax. % (10 μM)” value (bovine coronary artery) was 95% and the EC50 (bovine coronary artery; Bos taurus) was 1.9 µM.

In the case of `CCCCCN(C)C(=O)N(C)CCCC/C=C\CCCCCCC(=O)NCC(=O)O` [Compound 6, 2-(13-(1,3-Dimethyl-3-n-pentylureido)tridec-8(Z)-enamido)acetic acid], the “Vascular Relax. % (10 μM)” value (bovine coronary artery) is reported as 92%, the EC50 (bovine coronary artery; Bos taurus) is reported as 2.75 µM and the IC50 (Human recombinant sEH) is reported as greater than 0.5 µM.

With `CCCCCNC(=O)NCCCC/C=C\CCCCCCC(=O)NS(=O)(=O)c1ccccc1` [Compound 8, 13-(3-n-Pentylureido)-N-(phenylsulfonyl)tridec-8(Z)-enamide] the “Vascular Relax. % (10 μM)” value (bovine coronary artery) was 73%, the EC50 (bovine coronary artery; Bos taurus) was 6 µM and the IC50 (Human recombinant sEH) was 0.041 µM.

`CCCCCNC(=O)NCCCC/C=C\CCCCCCC(=O)NS(C)(=O)=O` [Compound 9, N-(Methylsulfonyl)-13-(3-n-pentylureido)tridec-8(Z)-enamide] was tested, and the “Vascular Relax. % (10 μM)” value (bovine coronary artery) was 61%, the EC50 (bovine coronary artery; Bos taurus) was 6.7 µM and the IC50 (Human recombinant sEH) was 0.071 µM.

For `CCCCCNC(=O)NCCCC/C=C\CCCCCCP(=O)([O-])[O-].[Na+].[Na+]` [Compound 10], the “Vascular Relax. % (10 μM)” value (bovine coronary artery) was 71%, the EC50 (bovine coronary artery; Bos taurus) was greater than 10 µM and the IC50 (Human recombinant sEH) was greater than 0.5 µM.

With `CCCCCNC(=O)NCCCC/C=C\CCCCCCS(=O)(=O)[O-].[Na+]` [Compound 11] the “Vascular Relax. % (10 μM)” value (bovine coronary artery) was 63%, the EC50 (bovine coronary artery; Bos taurus) was 7.6 µM and the IC50 (Human recombinant sEH) was 0.057 µM.

Molecule `CCCCCNC(=O)NCCCC/C=C\CCCCCNS(=O)(=O)c1ccccc1` [Compound 12, N-(11-(3-n-Pentylureido)undec-6(Z)-enyl)benzenesulfonamide] has an activation at 10 µM (bovine coronary artery; Bos taurus) of 75%, an EC50 (bovine coronary artery; Bos taurus) of 3.4 µM and an IC50 (Human recombinant sEH) of 0.032 µM.

`CCCCCNC(=O)NCCCC/C=C\CCCCCSc1ccccc1O` [Compound 13, 1-(11-(2-Hydroxyphenylthio)undec-5(Z)-enyl)-3-n-pentylurea] was tested, and the activation at 10 µM (bovine coronary artery; Bos taurus) was 48%, the EC50 (bovine coronary artery; Bos taurus) was greater than 10 µM and the IC50 (Human recombinant sEH) was 0.006 µM.

With `CCCCCNC(=O)NCCCC/C=C\CCCCCS(=O)(=O)c1ccccc1O` [Compound 14, 1-(11-(2-Hydroxyphenylsulfonyl)undec-5(Z)-enyl)-3-n-pentylurea] the activation at 10 µM (bovine coronary artery; Bos taurus) was 76% and the EC50 (bovine coronary artery; Bos taurus) was 5 µM.

For `CCCCCNC(=O)NCCCC/C=C\CCCCCSc1nnn[nH]1` [Compound 15, 1-(11-(1H-Tetrazol-5-ylthio)undec-5(Z)-enyl)-3-pentylurea], the activation at 10 µM (bovine coronary artery; Bos taurus) was 85%, the EC50 (bovine coronary artery; Bos taurus) was 3.7 µM and the IC50 (Human recombinant sEH) was 0.022 µM.

For `CCCCCNC(=O)NCCCC/C=C\CCCCCSc1ncn[nH]1` [Compound 16], the activation at 10 µM (bovine coronary artery; Bos taurus) was 53%, the EC50 (bovine coronary artery; Bos taurus) was 9.8 µM and the IC50 (Human recombinant sEH) was 0.032 µM.

Work on `CCCCCNC(=O)NCCCC/C=C\CCCCC[S+]([O-])c1ncn[nH]1` (stereo not shown) [Compound 17] yielded an activation at 10 µM (bovine coronary artery; Bos taurus) of 92%, an EC50 (bovine coronary artery; Bos taurus) of 3.5 µM and an IC50 (Human recombinant sEH) of 0.096 µM.

With `CCCCCNC(=O)NCCCC/C=C\CCCCCS(=O)(=O)c1ncn[nH]1` [Compound 18] the activation at 10 µM (bovine coronary artery; Bos taurus) was 92%, the EC50 (bovine coronary artery; Bos taurus) was 3.1 µM and the IC50 (Human recombinant sEH) was 0.023 µM.

With `CCCCCCC(=O)N(CCCC/C=C\CCCCCCc1nnn[nH]1)C(C)C` [Compound 19] the “Vascular Relax. % (10 μM)” value (bovine coronary artery) was 74% and the EC50 (bovine coronary artery; Bos taurus) was 1 µM.

`CCCCNC(=O)C(=O)NCCCC/C=C\CCCCCCc1nnn[nH]1` [Compound 21] was tested, and the “Vascular Relax. % (10 μM)” value (bovine coronary artery) was 96%, the EC50 (bovine coronary artery; Bos taurus) was 1.7 µM and the IC50 (Human recombinant sEH) was greater than 0.5 µM.

`CCCCCNC(=O)NCCCC/C=C\CCCCCCCc1nnn[nH]1` [Compound 22, 1-(13-(1H-Tetrazol-5-yl)tridec-5(Z)-enyl)-3-n-pentylurea] was tested, and the “Vascular Relax. % (10 μM)” value (bovine coronary artery) was 110%, the EC50 (bovine coronary artery; Bos taurus) was 1.1 µM and the IC50 (Human recombinant sEH) was 0.032 µM.

`CCCCCNC(=O)NCCCC/C=C\CCCCCCc1noc(=O)[nH]1` [Compound 23] was tested, and the “Vascular Relax. % (10 μM)” value (bovine coronary artery) was 89%, the EC50 (bovine coronary artery; Bos taurus) was 1.1 µM and the IC50 (Human recombinant sEH) was 0.065 µM.

With `CCCCCNC(=O)NCCCC/C=C\CCCCCC1SC(=O)NC1=O` (stereo not shown) [Compound 24, 1-(11-(2,4-Dioxothiazolidin-5-yl)undec-5(Z)-enyl)-3-n-pentylurea] the activation at 10 µM (bovine coronary artery; Bos taurus) was 47%, the EC50 (bovine coronary artery; Bos taurus) was greater than 10 µM and the IC50 (Human recombinant sEH) was 0.057 µM.

For `CCCCCNC(=O)NCCCC/C=C\CCCCCCC1=NOS(=O)N1` (stereo not shown) [Compound 25], the “Vascular Relax. % (10 μM)” value (bovine coronary artery) was 109%, the EC50 (bovine coronary artery; Bos taurus) was 0.34 µM and the IC50 (Human recombinant sEH) was 0.01 µM.

For `CCCCNC(=O)C(=O)NCCCC/C=C\CCCCCCC1=NOS(=O)N1` (stereo not shown) [Compound 27], the activation at 10 µM (bovine coronary artery; Bos taurus) was 116%, the EC50 (bovine coronary artery; Bos taurus) was 0.36 µM and the IC50 (Human recombinant sEH) was greater than 0.5 µM.

`CCCCCNC(=O)NCCCC/C=C\CCCCCCc1noc(=S)[nH]1` [Compound 28] was tested, and the “Vascular Relax. % (10 μM)” value (bovine coronary artery) was 93%, the EC50 (bovine coronary artery; Bos taurus) was 3.3 µM and the IC50 (Human recombinant sEH) was 0.031 µM.

In the case of `CCCCCNC(=O)NCCCC/C=C\CCCCCCc1nsc(=O)[nH]1` [Compound 29], the “Vascular Relax. % (10 μM)” value (bovine coronary artery) is reported as 54%, the EC50 (bovine coronary artery; Bos taurus) is reported as 2.4 µM and the IC50 (Human recombinant sEH) is reported as 0.231 µM.

In the case of `CCCCCNC(=O)NCCCCCOc1cccc2sc(NC(C)=O)nc12` [Compound 31, N-(4-(5-(3-n-Pentylureido)pentyloxy)benzo[d]thiazol-2-yl)acetamide], the “Vascular Relax. % (10 μM)” value (bovine coronary artery) is reported as 73%, the EC50 (bovine coronary artery; Bos taurus) is reported as 0.9 µM and the IC50 (Human recombinant sEH) is reported as greater than 0.5 µM.

In the case of `CCCCNC(=O)C(=O)NCCCCCOc1cccc2sc(NC(C)=O)nc12` [Compound 32], the “Vascular Relax. % (10 μM)” value (bovine coronary artery) is reported as 96% and the EC50 (bovine coronary artery; Bos taurus) is reported as 2.4 µM.
